Measurements reported in paper PMC10610256, “Development and Preclinical Evaluation of [^68Ga]BMSH as a New Potent Positron Emission Tomography Tracer for Imaging Programmed Death-Ligand 1 Expression” (Pharmaceuticals, 2023).

How the values were obtained:
[1] = tested on: A549-hPDL1 and A549 tumors; test: Micro-PET imaging, A549-hPDL1 versus A549 tumors; assay type: in vivo, BALB/c nude mice; conditions: 60 min post-injection
Description: For biodistribution and micro-PET imaging studies of [^68Ga]BMSH and [^18F]FDG, male BALB/c nude mice were implanted subcutaneously with 1–5 × 10^6 A549-hPDL1 cells and A549 cells behind right armpit. Mice were imaged or used in biodistribution studies when the tumor xenografts reached 5–10 mm in diameter. Dynamic micro-PET imaging studies were conducted in tumor-bearing nude mice (A549-hPDL1 and A549, n = 3 in each group) using the Madiclab PSA146 PET/CT/FMT instrument (Linyi, China). The images were reconstructed using a three-dimensional ordered-subset expectation maximum (OSEM) algorithm and were converted to the percentage of injected dose per gram of tissue (%ID/g) images. Tumor-bearing mice were intravenously injected with [^68Ga]BMSH (7.4 MBq/mouse) and [^18F]FDG (5.55 MBq/mouse), respectively. For the blocking experiment, the A549-hPDL1 tumor-bearing mice were co-injected with NOTA-BMSH (100 µg/mouse) and [^68Ga]BMSH. For data analysis, the regions of interest (ROIs) were manually drawn over the tumor and major organs on decay-corrected whole-body coronal images using PMOD software (version 4.3, PMOD Technologies Ltd., Zurich, Switzerland).

PD-L1 = molecular target: T1, PD-L1 (Homo sapiens, UniProt Q9NZQ7); test: Competitive cell-binding experiment against [^68Ga]BMSH; conditions: A549-hPDL1 cells, 60 min
T1 construct: expressed in transfected cells; host or cells: A549 cells stably transduced with hPD-L1 by lentivirus (A549-hPDL1)
T1 sequence (Q9NZQ7 19-290): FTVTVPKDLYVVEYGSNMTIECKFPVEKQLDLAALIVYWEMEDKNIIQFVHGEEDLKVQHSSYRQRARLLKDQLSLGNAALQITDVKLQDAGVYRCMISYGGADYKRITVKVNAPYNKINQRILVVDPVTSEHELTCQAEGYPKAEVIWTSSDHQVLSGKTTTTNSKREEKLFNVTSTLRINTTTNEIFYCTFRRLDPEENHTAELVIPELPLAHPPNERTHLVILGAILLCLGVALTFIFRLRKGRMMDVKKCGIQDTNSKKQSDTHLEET

Compound | A549-hPDL1 tumor/A549 tumor uptake ratio [1] | IC50 (PD-L1)
[^18F]FDG | 1.08 | 
CC(=O)NC1C(NC(=O)[C@H](CCC(=O)N[C@@H](CCC(=O)O)C(=O)N[C@@H](CC(=O)O)C(=O)NCCOCCOCC(=O)NCCNC(=O)[C@@H](CO)CNc2cc(C)c(OCc3cccc(-c4ccc5c(c4)OCCO5)c3C)cc2OCc2cccc(C#N)c2)NC(=O)COCCOCCNC(=O)CN2CCN(CC(=O)O)CCN(CC(=O)O)CC2)OC(CO)C(O)C1O (some centres unmarked) [NOTA-BMSH] |  | 0.449 µM
